Experimental data from article PMC10748408 (Frontiers in Oncology, 2023).

Tested on: TLR4
Assay: TLR4 silencing by vivo-morpholino, western blot of tumors
Assay type: in vivo, BALB/c mice
Details: tumor-bearing mice, with 25 mg/kg ART, vs SC-MO, p<0.001
Experimental: Normal and tumor tissues were homogenized in ice-cold radioimmunoprecipitation assay (RIPA) buffer containing a protease inhibitor cocktail. Proteins were resolved by 10% sodium dodecyl sulphate-polyacrylamide gel electrophoresis (SDS-PAGE), transferred onto polyvinylidene difluoride (PVDF) membranes, blocked with 5% fat-free milk and incubated with primary antibodies (1:1000 dilution) overnight at 4°C. Blots were subsequently washed and incubated with respective secondary antibodies, tagged with horseradish peroxidase. Protein expression was detected using enhanced chemiluminescence (ECL) kit ([37]). Blots were analyzed using the Gel Doc XR and band intensity quantified using ImageJ software (NIH, USA).
Murine mammary tumors were allowed to develop in BALB/c mice injected with 10^7 4T1 cells. […] Control groups were set up, where normal mice and mice-bearing tumors received PBS for 7 days. At the end of the experiment, tissues were harvested and processed for subsequent experiments.

“TLR4-VMO: vivo morpholino oligomers against TLR4 mRNA; 5' CAGGGAGGCATCATCCTGGCATTTT 3' (all phosphorodiamidate morpholino (PMO); vivo-morpholino from GeneTools, further chemistry not fully specified)” was tested, and the TLR4 expression was “significantly diminished”.
